Values joined by “and” are separate entries in the source; they are usually repeats but may differ in a detail not shown here. Equal entries are not always repeated. Where two headings read alike, the source gives them in different places.
Legend:
C32 = assay: MTT cell viability assay, C32; type: cell-based, human; conditions: Homo sapiens, 72 h
Experimental: (§1) Twelve compounds (2a-e, 3a-d and 4a-c) at a concentration range of 50–5000 μM were tested for their antiproliferative potential against four human cancer cell lines (A375—melanotic melanoma, C32—amelanotic melanoma, DU145—prostate cancer androgen-independent, MCF-7/WT—breast adenocarcinoma) and two normal cell lines: Chinese Hamster Ovary (CHO-K1) and immortalized human keratinocytes from histologically normal skin (HaCaT).
(§2) To determine the antiproliferative activity of newly synthesized compounds, the following cell lines were used: human melanotic melanoma cell line (A375), human amelanotic melanoma cell line (C32), human breast adenocarcinoma cell line (MCF-7/WT), human prostate cancer androgen-independent (DU145) and two normal cell lines: hamster ovarian (CHO-K1) and immortalized human keratinocytes from histologically normal skin (HaCaT). The cells were obtained from the cell line bank of the Department of Molecular and Cellular Biology, Wroclaw Medical University. A375, C32, MCF-7/WT, DU145 and HaCaT cells were grown in a monolayer cultured in Dulbecco’s Modified Eagle’s Medium (DMEM, Sigma-Aldrich, Poznań, Poland), supplemented with 10% of fetal bovine serum (FBS, Gibco, Paisley, UK) and 1% of antibiotics (penicillin/streptomycin, Sigma-Aldrich) and CHO-K1 were grown in HAM’s F-12 medium (Sigma-Aldrich), supplemented with 10% fetal bovine serum (FBS, Gibco) and 1% of antibiotics (penicillin/streptomycin, Sigma-Aldrich). Cell lines were cultured in the polystyrene flasks 25 or 75 cm^2 (Thermo Fisher Scientific, Waltham, MA, USA), which were stored in 37 °C and 5% CO2 in a humidified 95% atmosphere (SteriCult, Thermo Scientific, Alab). The cell medium was exchanged twice a week. The exponentially growing cells were used throughout the experiments. The cells were rinsed with phosphate-buffered saline (PBS, Sigma-Aldrich) and trypsinized by Trypsin-EDTA 0.25% solution (Sigma-Aldrich).
(§3) The influence of the compounds was performed in a monolayer culture on cancer and normal cells. Compounds were initially dissolved in DMSO; further dilutions of the compound were performed in Dulbecco’s Modified Eagle’s Medium supplemented with 10% FBS. Compounds were tested in a 50–5000 µM concentration range. In the in vitro experiments, the concentrations of DMSO in the final solution of the compounds were used 0.05%; 0.1%; 0.5%; 1%, respectively.
(§4) Cell viability was determined using the MTT colorimetric assay. All cell lines were seeded into 96-well plates to a density of 3 × 10^4 cells/well. After 24 h, the culture supernatants were removed and appropriate dilutions of compounds in the culture medium (200 µL/well) were added to the cells’ monolayer cultures and incubated for an additional 72 h. After 72 h of exposition to the compounds and the removal of the culture medium, cell viability was determined by reducing the yellow dye 3-(4,5-dimethyl-2-thiazol)-2,5-diphenyl-2H-tetrazolium bromide (MTT assay, Sigma Saint Louis, MO, USA; In Vitro Toxicology Assay) to a blue formazan product. The absorbance of the resulting solutions in three duplicate experiments was measured at the wavelength of 560 nm in a microplate reader (EnSpire, Perkin Elmer, Kraków, Poland). MTT assay is a colorimetric method that estimates the rate of metabolism in viable cells. Absorbance is directly proportional to the number of viable cells. All the experiments were performed three times and the mean absorbance values were calculated. The methodology for the evaluation of the growth of human cancer and normal cells was described previously. The cell viability in each group was expressed as a percentage of control (untreated) cells.

MCF-7/WT = assay: MTT cell viability assay, MCF-7/WT; type: cell-based; conditions: Homo sapiens, MCF7, 72 h, mean ± SD
Experimental: as §1, §2, §3, §4

[1] = system: 60 human cancer cell lines; assay: NCI-60 anticancer screen, full panel; type: cell-based
RPMI-8226 = assay: NCI-60 screen, Leukemia RPMI-8226; type: cell-based, human
SR = assay: NCI-60 screen, Leukemia SR; type: cell-based, human; conditions: five doses 10^−4–10^−8 M
HOP-62 = assay: NCI-60 screen, Non-Small Cell Lung Cancer HOP-62; type: cell-based
HOP-92 = assay: NCI-60 screen, Non-Small Cell Lung Cancer HOP-92; type: cell-based, human
NCI-H226 = assay: NCI-60 screen, Non-Small Cell Lung Cancer NCI-H226; type: cell-based, human
NCI-H460 = assay: NCI-60 screen, Non-Small Cell Lung Cancer NCI-H460; type: cell-based, human
SF-268 = assay: NCI-60 screen, CNS Cancer SF-268; type: cell-based, human
SNB-75 = assay: NCI-60 screen, CNS Cancer SNB-75; type: cell-based, human; conditions: SNB-75, five doses 10^−4–10^−8 M
SK-MEL-5 = assay: NCI-60 screen, Melanoma SK-MEL-5; type: cell-based, human
UACC-257 = assay: NCI-60 screen, Melanoma UACC-257; type: cell-based
OVCAR-3 = assay: NCI-60 screen, Ovarian Cancer OVCAR-3; type: cell-based, human
OVCAR-8 = assay: NCI-60 screen, Ovarian Cancer OVCAR-8; type: cell-based, human
NCI/ADR-RES = assay: NCI-60 screen, Ovarian Cancer NCI/ADR-RES; type: cell-based, human
786-0 = assay: NCI-60 screen, Renal Cancer 786-0; type: cell-based
CAKI-1 = assay: NCI-60 screen, Renal Cancer CAKI-1; type: cell-based, human
PC-3 = assay: NCI-60 screen, Prostate C. PC-3; type: cell-based
MDA-MB-231/ATCC = assay: NCI-60 screen, Breast Cancer MDA-MB-231/ATCC; type: cell-based
[2] = over the panel, values > −4.00 excluded
[3] = Homo sapiens, HOP-92, five doses 10^−4–10^−8 M

## FC(F)(F)c1nc(Cl)c2sc(=S)n(-c3ccccc3)c2n1 [Compound 3b, 7-chloro-3-phenyl-5-(trifluoromethyl)[1, 3]thiazolo[4,5-d]pyrimidine-2(3H)-thione]
C32; C32, MTT, mean ± SD
  IC50: 24.4 ± 0.5 µM
C32; C32 amelanotic melanoma, 50 µM
  viability at 50 µM: 20%
MCF-7/WT
  IC50: 49 ± 1 µM
[1]; 10^−5 M one dose, mean over the panel
  Mean Growth %: 29.51%
[1]; Homo sapiens, five doses 10^−4–10^−8 M, mean graph midpoint over all tested cell lines, read-out: log GI50 Mean MG_MID (converted)
  GI50: 2.19 µM
[1]; Homo sapiens, five doses 10^−4–10^−8 M, mean graph midpoint over all tested cell lines, read-out: log LC50 Mean MG_MID (converted)
  CC50: 16.6 µM
[1]; Homo sapiens, one number printed for the pair, read-out: log LC50 MG_MID/Δ (converted)
  CC50: 16.6 µM
[1]; five doses 10^−4–10^−8 M, mean graph midpoint over all tested cell lines
  log TGI Mean MG_MID: −5.30 log M and −5.3 log M
[1]; of N = 58 tested cell lines
  N2: number of cell lines giving positive log TGI (≤−4.01): 58
[1]; [2]
  log GI50 Range: −4.86 to −6.69 log M
  log LC50 Range: −4.03 to −5.82 log M
  log TGI Range: −4.31 to −6.33 log M
RPMI-8226; Homo sapiens, RPMI-8226, five doses 10^−4–10^−8 M
  GI50: 2.51 µM
RPMI-8226; Homo sapiens, RPMI-8226, five doses 10^−4–10^−8 M, read-out: log LC50 (the source's name) (converted)
  CC50: > 100 µM
RPMI-8226; RPMI-8226, 10^−5 M one dose
  Growth of Cells (%): 44.45%
RPMI-8226; RPMI-8226, five doses 10^−4–10^−8 M
  log TGI: −5.11 log M
SR; Homo sapiens
  GI50: 0.437 µM
SR; Homo sapiens, read-out: log LC50 (the source's name) (converted)
  CC50: > 100 µM
SR
  log TGI: −5.70 log M
HOP-62; HOP-62, 10^−5 M one dose
  Growth of Cells (%): 95.98%
HOP-62; HOP-62, five doses 10^−4–10^−8 M
  log TGI: −5.46 log M
HOP-62; Homo sapiens, HOP-62, read-out: log GI50 (converted)
  GI50: 1.86 µM
HOP-62; Homo sapiens, HOP-62, five doses 10^−4–10^−8 M, read-out: log LC50 (the source's name) (converted)
  CC50: 6.31 µM
HOP-92; HOP-92, 10^−5 M one dose
  Growth of Cells (%): −21.23%
HOP-92; HOP-92, five doses 10^−4–10^−8 M
  log TGI: −5.56 log M
HOP-92; [3]
  GI50: 1.26 µM
  LC50: 5.89 µM
NCI-H226; Homo sapiens, NCI-H226, five doses 10^−4–10^−8 M
  GI50: 13.8 µM
NCI-H226; Homo sapiens, NCI-H226, five doses 10^−4–10^−8 M, read-out: log LC50 (the source's name) (converted)
  CC50: > 100 µM
NCI-H226; NCI-H226, 10^−5 M one dose
  Growth of Cells (%): 89.12%
NCI-H226; NCI-H226, five doses 10^−4–10^−8 M
  log TGI: −4.31 log M
NCI-H460; Homo sapiens, NCI-H460, five doses 10^−4–10^−8 M
  GI50: 3.24 µM
NCI-H460; Homo sapiens, NCI-H460, five doses 10^−4–10^−8 M, read-out: log LC50 (the source's name) (converted)
  CC50: 50.1 µM
NCI-H460; NCI-H460, 10^−5 M one dose
  Growth of Cells (%): 68.89%
NCI-H460; NCI-H460, five doses 10^−4–10^−8 M
  log TGI: −4.99 log M
SF-268; Homo sapiens, SF-268, five doses 10^−4–10^−8 M
  GI50: 1.78 µM
SF-268; Homo sapiens, SF-268, five doses 10^−4–10^−8 M, read-out: log LC50 (the source's name) (converted)
  CC50: 6.61 µM
SF-268; SF-268, 10^−5 M one dose
  Growth of Cells (%): 84.73%
SNB-75; Homo sapiens
  GI50: 2 µM
  LC50: 8.91 µM
SNB-75
  log TGI: −5.38 log M
SK-MEL-5; Homo sapiens, SK-MEL-5, five doses 10^−4–10^−8 M
  GI50: 2.19 µM
SK-MEL-5; Homo sapiens, SK-MEL-5, five doses 10^−4–10^−8 M, read-out: log LC50 (the source's name) (converted)
  CC50: 12.3 µM
SK-MEL-5; SK-MEL-5, 10^−5 M one dose
  Growth of Cells (%): 81.95%
SK-MEL-5; SK-MEL-5, five doses 10^−4–10^−8 M
  log TGI: −5.31 log M
UACC-257; Homo sapiens, UACC-257, five doses 10^−4–10^−8 M
  GI50: 1.74 µM
UACC-257; Homo sapiens, UACC-257, five doses 10^−4–10^−8 M, read-out: log LC50 (the source's name) (converted)
  CC50: 7.94 µM
UACC-257; UACC-257, 10^−5 M one dose
  Growth of Cells (%): 19.38%
UACC-257; UACC-257, five doses 10^−4–10^−8 M
  log TGI: −5.43 log M
OVCAR-3; Homo sapiens, OVCAR-3, five doses 10^−4–10^−8 M
  GI50: 1.91 µM
OVCAR-3; Homo sapiens, OVCAR-3, five doses 10^−4–10^−8 M, read-out: log LC50 (the source's name) (converted)
  CC50: 6.03 µM
OVCAR-3; OVCAR-3, 10^−5 M one dose
  Growth of Cells (%): −41.27%
OVCAR-3; OVCAR-3, five doses 10^−4–10^−8 M
  log TGI: −5.47 log M
OVCAR-8; Homo sapiens, OVCAR-8, five doses 10^−4–10^−8 M
  GI50: 1.95 µM
OVCAR-8; Homo sapiens, OVCAR-8, five doses 10^−4–10^−8 M, read-out: log LC50 (the source's name) (converted)
  CC50: > 100 µM
OVCAR-8; OVCAR-8, 10^−5 M one dose
  Growth of Cells (%): 4.40%
OVCAR-8; OVCAR-8, five doses 10^−4–10^−8 M
  log TGI: −5.27 log M
NCI/ADR-RES; 10^−5 M one dose
  Growth of Cells (%): 109.92%
NCI/ADR-RES; Homo sapiens, five doses 10^−4–10^−8 M
  GI50: 3.31 µM
NCI/ADR-RES; Homo sapiens, five doses 10^−4–10^−8 M, read-out: log LC50 (the source's name) (converted)
  CC50: > 100 µM
NCI/ADR-RES; five doses 10^−4–10^−8 M
  log TGI: −4.96 log M
786-0; 786-0, 10^−5 M one dose
  Growth of Cells (%): 90.12%
786-0; 786-0, five doses 10^−4–10^−8 M
  log TGI: −5.42 log M
786-0; Homo sapiens, 786-0, five doses 10^−4–10^−8 M
  GI50: 1.95 µM
786-0; Homo sapiens, 786-0, five doses 10^−4–10^−8 M, read-out: log LC50 (the source's name) (converted)
  CC50: 7.41 µM
CAKI-1; CAKI-1, 10^−5 M one dose
  Growth of Cells (%): 81.74%
CAKI-1; CAKI-1, five doses 10^−4–10^−8 M
  log TGI: −5.51 log M
CAKI-1; Homo sapiens, CAKI-1, five doses 10^−4–10^−8 M
  GI50: 1.66 µM
CAKI-1; Homo sapiens, CAKI-1, five doses 10^−4–10^−8 M, read-out: log LC50 (the source's name) (converted)
  CC50: 5.75 µM
PC-3; Homo sapiens, PC-3, five doses 10^−4–10^−8 M
  GI50: 1.82 µM
PC-3; Homo sapiens, PC-3, five doses 10^−4–10^−8 M, read-out: log LC50 (the source's name) (converted)
  CC50: 6.76 µM
PC-3; PC-3, 10^−5 M one dose
  Growth of Cells (%): 53.66%
PC-3; PC-3, five doses 10^−4–10^−8 M
  log TGI: −5.45 log M
MDA-MB-231/ATCC; Homo sapiens, MDA-MB-231, read-out: log GI50 (converted)
  GI50: 2 µM
MDA-MB-231/ATCC; Homo sapiens, MDA-MB-231/ATCC, five doses 10^−4–10^−8 M, read-out: log LC50 (the source's name) (converted)
  CC50: 7.59 µM
MDA-MB-231/ATCC; MDA-MB-231/ATCC, 10^−5 M one dose
  Growth of Cells (%): 13.85%
MDA-MB-231/ATCC; MDA-MB-231/ATCC, five doses 10^−4–10^−8 M
  log TGI: −5.41 log M

Reference: PMC8778818, “Synthesis, Structural Characterization and Anticancer Activity of New 5-Trifluoromethyl-2-thioxo-thiazolo[4,5-d]pyrimidine Derivatives” (Pharmaceuticals, 2022)
